Each structure is given as a SMILES string. Like-named read-outs stand apart in the source and are kept apart here. A value given as a limit tells only on which side of the number the result lay.

The text below walks through data of US20150051203A1, “TRIAZOLE DERIVATIVES AS HSP90 INHIBITORS” (Synta Pharmaceuticals Corp., priority 2012, published 2015).

Data set [1] in a line: Exploratory small molecule PK study in rats. Type of data set: in vivo, male Sprague-Dawley rats. Further details: AUClast: unit not given here. The note with it: rat; for half-life: male, Sprague-Dawley, plasma, read-out: T½ (converted); for F: PO 25 mg/Kg D5W vs IV 5 mg/Kg DPD. As for the experimental part:
PK studies were conducted in male Sprague-Dawley rats. One group was dosed by IV (n=2) and another group was dosed orally (n=3). Blood samples were collected in lithium heparin coated microfuge tubes at 5 (IV only), 15, 30 min, 1, 3, 4, 6, 8, 24 h post dose. Samples were then centrifuged under refrigerated conditions and plasma was collected for analysis.
A solvent-based protein precipitation procedure was used to measure the concentration of each compound in plasma and/or whole blood. Samples were analyzed with an Agilent 1100 HPLC (Santa Clara, Calif.) interfaced to an API 4000 tandem mass spectrometer (Applied Biosystems, Foster City, Calif.) using a Synergy, Hydro-RP column (4 μm, 2×50 mm; Phenomenex, Torrance, Calif.) at a flow rate of 0.5 ml/min. Mobile phase consisted of 10 mM ammonium acetate in water (A) and 10 mM ammonium acetate in 95/5 (v/v) methanol/water (B). Total run time was 5 min with the gradient elution. […] All standard curves were fit to a quadratic equation with a weighing factor of 1/(concentration)^2 to calculate compound concentrations.

The next data set deals with c-Kit. Kind of data set: c-Kit degradation in HEL92.1.7 cells (FACS-based degradation assay). Type of data set: cell-based. The note with it: treated about 18 h. As for the experimental part:
Two leukemia cell lines, HEL92.1.7 and Kasumi-1, were used for testing c-Kit degradation induced by Hsp90 inhibitors of the invention. The cells (3×10^5 per well) were treated with 17AAG (0.5 μM), or a compound of the invention for about 18 h. The cells were collected and centrifuged (SORVALL RT 6000D) at 1200 rpm for 5 min. The supernatants were discarded, and the cells were washed one time with 1×PBS. After centrifugation the cells were stained with FITC conjugated c-Kit antibody (MBL International, Cat# K0105-4) in […] 1×PBS at 4° C. for 1 h. The samples were read and analyzed with FACSCalibur flow cytometer (Becton Dicknson).
c-Kit, a tyrosine kinase receptor and one of the Hsp90 client proteins, was selected and used in a FACS-based degradation assay.

Data set [2] concerns Her2. Kind of data set: Her2 degradation in BT-474 cells, ICW (LI-COR Odyssey imaging). Type of data set: cell-based, Human. The note with it: BT474 cells, 24 hours. As for the experimental part:
All experiments were performed on day 1 after cell passage.
BT-474 cells were plated in the interior 60 wells of a 96 well black clear bottom plate (20,000 cells/well) in DMEM medium, with DMEM media in the surrounding 36 wells, and incubated at 37° C. with 5% CO2 overnight. On the second day, concentration response curve source plates were produced (10 point, 3-fold dilution of compounds in DMSO) followed by a 1:30 dilution in an intermediate dilution plate containing DMEM. Compound was transferred from the intermediate plate to the cell plate at a dilution of 1:10. The cells were incubated at 37° C. with 5% CO2 for 24 hours.
Cells were fixed in 4% phosphate buffered paraformaldehyde for 30 minutes at room temperature and then permeabilized by washing five times with 0.1% Triton X-100 in PBS for 5 minutes at room temperature on a shaker. Cells were blocked with Odyssey Blocking Buffer (LI-COR, #927-40000) on a shaker at room temperature for 1.5 hours followed by incubation with Her2 antibody (CST, #2165) diluted 1:400 in blocking buffer overnight on a shaker at 4° C. Cells were washed five times with 0.1% Tween-20 in PBS for 5 minutes at room temperature on a shaker and incubated with fluorescently labeled secondary antibody (LI-COR, #926-32211) diluted 1:1000 in blocking buffer, and DRAQ5 nuclear stain (Biostatus Limited, #DRAQ5) diluted 1:10,000, at room temperature on a shaker for 1 hour. Cells were washed 5 times with 0.1% Tween-20 in PBS for 5 minutes at room temperature on a shaker and imaged on a LI-COR Odyssey imaging station. The raw data was normalized to DRAQ5 and the Her2 EC50 were calculated using XLfit.

Data set [3] concerns Her2. Kind of data set: Fluorescent staining of Her2 on the surface of cells, FACS (BT474). Type of data set: cell-based, Human. The procedure:
After treatment with a compound of the invention, cells are washed twice with 1×PBS/1% FBS, and then stained with anti-Her2-FITC (#340553, BD) for 30 min at 4° C. Cells are then washed three times in FACS buffer before the fixation in 0.5 ml 1% paraformadehyde. Data is acquired on a FACSCalibur system. Isotype-matched controls are used to establish the non-specific staining of samples and to set the fluorescent markers. A total 10,000 events are recorded from each sample. Data are analyzed by using CellQuest software (BD Biosciences).
After treatment with a compound of the invention, cells are washed twice with 1×PBS/1% FBS, and then stained with anti-Her2-FITC (#340553, BD) for 30 min at 4° C. Cells are then washed three times in FACS buffer before the fixation in 0.5 ml 1% paraformadehydrede. Data is acquired on a FACSCalibur system. Isotype-matched controls are used to establish the non-specific staining of samples and to set the fluorescent markers. A total 10,000 events are recorded from each sample. Data are analyzed by using CellQuest software (BD Biosciences).

`CCNC(=O)c1nnc(-c2cc3c(C(C)C)n[nH]c3cc2O)n1-c1ccc(CN2CCOCC2)cc1` [Compound 55, N-ethyl-5-(6-hydroxy-3-isopropyl-1H-indazol-5-yl)-4-(4-(morpholinomethyl)phenyl)-4H-1,2,4-triazole-3-carboxamide]: in data set [1] (IV 5 mg/Kg, DPD), the half-life is 1.7 h and the AUClast stood at 2.52. Also, in data set [1] (PO 25 mg/Kg, D5W), the half-life is 4.3 h and the AUClast is 24.4. Besides, the F in data set [1] is listed as 197%.
Broadly, the IC50 is the concentration that gives 50% inhibition. The molecule `CCc1n[nH]c2cc(O)c(-c3nnc(SCc4cccnc4)n3-c3ccc(N4CCOCC4)cc3)cc12` [Compound 30, 3-ethyl-5-(4-(4-morpholinophenyl)-5-(pyridin-3-ylmethylthio)-4H-1,2,4-triazol-3-yl)-1H-indazol-6-ol] displayed a concentration for half-maximal inhibition (IC50) in the data set on c-Kit of 300 nM.
What is called EC50 is the concentration that produces a half-maximal response. For `CN1CCN(c2ccc(-n3c(O)nnc3-c3cc4c(C5CCC5)n[nH]c4cc3O)cc2)CC1` [Compound 70, 3-cyclobutyl-5-(5-hydroxy-4-(4-(4-methylpiperazin-1-yl)phenyl)-4H-1,2,4-triazol-3-yl)-1H-indazol-6-ol], in the data set with c-Kit, the IC50 was greater than 1000 nM. Also, the EC50 in the data set on Her2 [2] is 300 nM; with Her2 [3], greater than 1000 nM.
Molecule `Oc1cc2[nH]nc(C3CCCC3)c2cc1-c1nnc(O)n1-c1ccc(N2CCOCC2)cc1` [Compound 71, 3-cyclopentyl-5-(5-hydroxy-4-(4-morpholinophenyl)-4H-1,2,4-triazol-3-yl)-1H-indazol-6-ol] came in with an IC50 in the data set with c-Kit of 106 nM. For the same molecule, the EC50 with Her2 [2] turned out to be 30 nM; in the data set on Her2 [3], 119 nM.
For the molecule `CC(C)c1n[nH]c2cc(O)c(-c3nnc(O)n3-c3ccc(N4CCN(C)CC4)cc3)cc12` [Compound 72, 5-(5-hydroxy-4-(4-(4-methylpiperazin-1-yl)phenyl)-4H-1,2,4-triazol-3-yl)-3-isopropyl-1H-indazol-6-ol], in data set [1] (IV 5 mg/Kg, DPD), the half-life is 1.1 h and the AUClast came out at 1.69. Moreover, in data set [1] (PO 25 mg/Kg, D5W), the half-life was 2.1 h and the AUClast was 0.61. Moreover, in data set [1], the F is 7.57%.
`CCc1n[nH]c2cc(O)c(-c3nnc(O)n3-c3ccc4c(c3)CC(N3CCOCC3)C4)cc12` (stereo not shown) [Compound 35, 3-ethyl-5-(5-hydroxy-4-(2-morpholino-2,3-dihydro-1H-inden-5-yl)-4H-1,2,4-triazol-3-yl)-1H-indazol-6-ol] displayed an IC50 in the data set with c-Kit greater than 20000 nM.
The same measure, in the same setting: the same measure for `CCc1n[nH]c2cc(O)c(-c3nnc(O)n3-c3ccc(N4CCOCC4)cc3)cc12` [Compound 32, 3-ethyl-5-(5-hydroxy-4-(4-morpholinophenyl)-4H-1,2,4-triazol-3-yl)-1H-indazol-6-ol]: 400 nM.
Turning to `CC(C)c1cc(-c2n[nH]c(=O)n2-c2ccc3c(ccn3C)c2)c(O)cc1O` [ganetespib, reference compound], the IC50 in the data set on c-Kit was 4 nM. The EC50 came to 20 nM in the data set on Her2 [2] and 18 nM in the data set on Her2 [3].
`Cc1n[nH]c2cc(O)c(-c3nnc(C(N)=O)n3-c3ccc4c(c3)OCO4)cc12` [Compound 4, 4-(benzo[d][1,3]dioxol-5-yl)-5-(6-hydroxy-3-methyl-1H-indazol-5-yl)-4H-1,2,4-triazole-3-carboxamide]: in the data set on c-Kit, inhibition was half-maximal at 5000 nM (IC50).
Same read-out and setting: the same measure for `CCc1n[nH]c2cc(O)c(-c3nnc(O)n3-c3cccc(N(C)C)c3)cc12` [Compound 31, 5-(4-(3-(dimethylamino)phenyl)-5-hydroxy-4H-1,2,4-triazol-3-yl)-3-ethyl-1H-indazol-6-ol]: greater than 20000 nM.
`CCCc1n[nH]c2cc(O)c(-c3nnc(C(=O)NC4CC4)n3-c3ccc(N4CCOCC4)cc3)cc12` [Compound 8, N-cyclopropyl-5-(6-hydroxy-3-propyl-1H-indazol-5-yl)-4-(4-morpholinophenyl)-4H-1,2,4-triazole-3-carboxamide] had an IC50 with c-Kit of 36 nM.
The same measure, in the same setting: the same measure for `Cc1n[nH]c2cc(O)c(-c3nnc(C(=O)NC4CC4)n3-c3ccc(N4CCOCC4)cc3)cc12` [Compound 5, N-cyclopropyl-5-(6-hydroxy-3-methyl-1H-indazol-5-yl)-4-(4-morpholinophenyl)-4H-1,2,4-triazole-3-carboxamide]: 100 nM.
Same read-out and setting: the same measure for `CCc1n[nH]c2cc(O)c(-c3nnc(O)n3-c3ccc(N4CCOCC4)nc3)cc12` [Compound 33, 3-ethyl-5-(5-hydroxy-4-(6-morpholinopyridin-3-yl)-4H-1,2,4-triazol-3-yl)-1H-indazol-6-ol]: 4000 nM; for `CCc1n[nH]c2cc(O)c(-c3nnc(C(N)=O)n3-c3ccc(N4CCOCC4)cc3)cc12` [Compound 6, 5-(3-ethyl-6-hydroxy-1H-indazol-5-yl)-4-(4-morpholinophenyl)-4H-1,2,4-triazole-3-carboxamide]: 20 nM; for `CC(C)c1n[nH]c2cc(O)c(-c3nnc(C(N)=O)n3-c3ccc(N4CCOCC4)cc3)cc12` [Compound 9, 5-(6-hydroxy-3-isopropyl-1H-indazol-5-yl)-4-(4-morpholinophenyl)-4H-1,2,4-triazole-3-carboxamide]: 40 nM.
In turn, `CC(C)c1n[nH]c2cc(O)c(-c3nnc(C(=O)NC4CC4)n3-c3ccc(N4CCOCC4)cc3)cc12` [Compound 10, N-cyclopropyl-5-(6-hydroxy-3-isopropyl-1H-indazol-5-yl)-4-(4-morpholinophenyl)-4H-1,2,4-triazole-3-carboxamide] displayed an IC50 with c-Kit of 7 nM.
As to `Oc1cc2[nH]nc(C3CCCC3)c2cc1-c1nnc(O)n1-c1ccc(CN2CCOCC2)cc1` [Compound 78, 3-cyclopentyl-5-(5-hydroxy-4-(4-(morpholinomethyl)phenyl)-4H-1,2,4-triazol-3-yl)-1H-indazol-6-ol], in data set [1] (IV 5 mg/Kg, DPD), the half-life is 1.5 h and the AUClast is listed as 3.96. In addition, in data set [1] (PO 25 mg/Kg, D5W), the half-life is 4.2 h and the AUClast is listed as 2.55. Besides, the F in data set [1] is 13%.
For the molecule `Cc1n[nH]c2cc(O)c(-c3nnc(C(N)=O)n3-c3ccc(N4CCOCC4)cc3)cc12` [Compound 2, 5-(6-hydroxy-3-methyl-1H-indazol-5-yl)-4-(4-morpholinophenyl)-4H-1,2,4-triazole-3-carboxamide], the midpoint of inhibition with c-Kit, the IC50, lay at 500 nM.
Same read-out and setting: the same measure for `CCc1n[nH]c2cc(O)c(-c3nnc(O)n3-c3ccc4c(ccn4C)c3)cc12` [Compound 29, 3-ethyl-5-(5-hydroxy-4-(1-methyl-1H-indol-5-yl)-4H-1,2,4-triazol-3-yl)-1H-indazol-6-ol]: 200 nM.
